Data from PMC10466331, “Fluorescence polarisation activity-based protein profiling for the identification of deoxynojirimycin-type inhibitors selective for lysosomal retaining alpha- and beta-glucosidases” (Chemical Science, 2023).
Like-named read-outs stand apart in the source and are kept apart here.

What was measured:
Type in all cases: biochemical
[1] = target: T1, ER α-glucosidase GANAB (from Pompe disease Fibroblast lysates) (Homo sapiens, UniProt Q14697); experiment: fluorogenic substrate (4MU-α-D-glucopyranoside) assay on GANAB in Pompe fibroblast homogenates;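 also: inhibitor preincubated 30 min at 37 °C with homogenate, then GANAB activity read after 2 h with 3.0 mM fluorogenic substrate in McIlvaine buffer containing 0.1% BSA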
T1 construct: Cellular homogenates of Pompe fibroblasts (1 mg mL^−1) were used as protein source for GANAB; endogenous in cells; host or cells: Pompe disease fibroblasts (homogenate)
T1 sequence (Q14697 29-944): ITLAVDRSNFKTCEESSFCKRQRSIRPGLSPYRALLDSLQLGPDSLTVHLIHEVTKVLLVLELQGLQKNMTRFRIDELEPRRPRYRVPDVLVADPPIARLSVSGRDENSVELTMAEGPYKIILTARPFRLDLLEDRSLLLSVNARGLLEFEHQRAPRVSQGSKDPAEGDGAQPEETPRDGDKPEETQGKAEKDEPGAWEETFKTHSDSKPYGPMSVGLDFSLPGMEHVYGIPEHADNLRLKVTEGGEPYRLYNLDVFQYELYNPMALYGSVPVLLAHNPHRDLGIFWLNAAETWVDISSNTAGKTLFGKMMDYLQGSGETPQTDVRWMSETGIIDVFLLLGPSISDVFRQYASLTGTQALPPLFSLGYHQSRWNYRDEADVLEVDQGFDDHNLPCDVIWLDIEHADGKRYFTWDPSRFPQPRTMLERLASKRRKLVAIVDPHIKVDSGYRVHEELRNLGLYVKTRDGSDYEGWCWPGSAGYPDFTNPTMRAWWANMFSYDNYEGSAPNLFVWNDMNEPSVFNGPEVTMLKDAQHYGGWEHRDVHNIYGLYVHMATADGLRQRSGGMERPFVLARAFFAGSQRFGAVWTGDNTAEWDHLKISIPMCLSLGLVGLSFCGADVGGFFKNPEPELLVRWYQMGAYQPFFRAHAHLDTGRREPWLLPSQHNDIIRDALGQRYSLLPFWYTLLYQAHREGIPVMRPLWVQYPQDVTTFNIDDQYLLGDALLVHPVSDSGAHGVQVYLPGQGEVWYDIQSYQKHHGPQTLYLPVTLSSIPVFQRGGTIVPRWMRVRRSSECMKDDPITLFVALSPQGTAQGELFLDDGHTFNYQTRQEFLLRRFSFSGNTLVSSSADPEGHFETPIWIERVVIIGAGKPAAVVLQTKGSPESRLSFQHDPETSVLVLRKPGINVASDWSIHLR
T1 sequence (P14314 15-528 partner): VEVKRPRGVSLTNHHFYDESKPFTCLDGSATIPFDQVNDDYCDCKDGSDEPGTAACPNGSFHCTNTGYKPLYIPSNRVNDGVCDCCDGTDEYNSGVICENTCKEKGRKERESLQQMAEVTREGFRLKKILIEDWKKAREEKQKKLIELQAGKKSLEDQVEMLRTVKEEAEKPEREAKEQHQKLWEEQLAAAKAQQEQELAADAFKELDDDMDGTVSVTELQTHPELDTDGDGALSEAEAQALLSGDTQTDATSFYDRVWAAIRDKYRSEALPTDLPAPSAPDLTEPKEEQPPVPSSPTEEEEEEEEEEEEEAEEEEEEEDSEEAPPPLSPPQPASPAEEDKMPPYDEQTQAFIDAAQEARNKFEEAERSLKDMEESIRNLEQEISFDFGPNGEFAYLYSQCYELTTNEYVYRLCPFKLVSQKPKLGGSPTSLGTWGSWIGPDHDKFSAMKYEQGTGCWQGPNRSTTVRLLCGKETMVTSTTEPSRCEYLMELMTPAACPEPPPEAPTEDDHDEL

[2] = target: T2, human recombinant lysosomal α-glucosidase GAA (Myozyme) (Homo sapiens, UniProt P10253); experiment: fluorogenic substrate (4MU-α-D-glucopyranoside) assay on rhGAA
T2 construct: purchased Genzyme

[3] = target: T3, recombinant human GAA (rhGAA, Myozyme) (Homo sapiens, UniProt P10253); experiment: competitive FluoPol-ABPP assay on rhGAA with TAMRA-ABP II; details: library screen, 5 μM inhibitor, 25 nM ABP II;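 also: fluorescence polarization read at 540 nm excitation and 590 nm emission, background-corrected, normalized to uninhibited probe labelling as 100% and excess cyclosulfate as 0%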
T3 construct: purchased Genzyme

[4] = Table S2, 4-MU alpha glucoside substrate, read-out: IC50 on GANAB
[5] = Table S2, 4-MU alpha glucoside substrate, read-out: IC50 on rhGAA

Row | Compound | IC50 [1, 4] [nM] | IC50 [2, 5] [nM] | GAA FP% (residual FP-signal) [3] [%] | other results
1 | CCCCOCCCCCN1C[C@H](O)[C@@H](O)[C@H](O)[C@H]1CO [#ID 19] |  |  |  | IC50 ([1]; Table S2, 4-MU alpha glucoside substrate, listed as 19, read-out: IC50 on GANAB): 3600 nM; IC50 ([2]; Table S2, 4-MU alpha glucoside substrate, listed as 19, read-out: IC50 on rhGAA): 350 nM; GAA FP% (residual FP-signal) ([3]; listed as 19): 28%
2 | CCCCCOCCCCCN1C[C@H](O)[C@@H](O)[C@H](O)[C@H]1CO [#ID 20] |  |  |  | IC50 ([1]; Table S2, 4-MU alpha glucoside substrate, listed as 20, read-out: IC50 on GANAB): 19000 nM; IC50 ([2]; Table S2, 4-MU alpha glucoside substrate, listed as 20, read-out: IC50 on rhGAA): 330 nM; GAA FP% (residual FP-signal) ([3]; listed as 20): 17%
3 | CC(C)(C)COCCOCCN1C[C@H](O)[C@@H](O)[C@H](O)[C@H]1CO [#ID 89] | 1700 | 730 | 24 | 
4 | OC[C@@H]1[C@@H](O)[C@H](O)[C@@H](O)CN1CCCCCOCc1ccc(-c2ccc3c(c2)OCO3)cc1 [#ID 303] | 4700 | 140 | 0.1 | 
5 | OC[C@@H]1[C@@H](O)[C@H](O)[C@@H](O)CN1CCCCCOCc1ccc(-c2ccncc2)cc1 [#ID 316] | 1300 | 89 | 1.1 | 
6 | CCCCCCOCCCCCN1C[C@H](O)[C@@H](O)[C@H](O)[C@H]1CO [#ID 21] | 14800 | 310 | 17 | 
7 | OC[C@@H]1[C@H](O)[C@@H](O)[C@H](O)CN1CCOCc1ccccc1 [#ID 47] | 4600 | 550 | 34 | 
8 | OC[C@@H]1[C@@H](O)[C@H](O)[C@@H](O)CN1CCCCCOCCC12CC3CC(CC(C3)C1)C2 [#ID 170] | 1600 | 430 | 4.1 | 
9 | CCCCCCCOCCCCCN1C[C@H](O)[C@@H](O)[C@H](O)[C@H]1CO [#ID 23] |  |  |  | IC50 ([1]; Table S2, 4-MU alpha glucoside substrate, listed as 23, read-out: IC50 on GANAB): 7200 nM; IC50 ([2]; Table S2, 4-MU alpha glucoside substrate, listed as 23, read-out: IC50 on rhGAA): 290 nM; GAA FP% (residual FP-signal) ([3]; listed as 23): 16%
10 | CCCCCCCOCCCCCN1C[C@H](O)[C@@H](O)[C@H](O)[C@H]1CO [#ID 276] |  |  |  | IC50 ([1]; Table S2, 4-MU alpha glucoside substrate, listed as 276, read-out: IC50 on GANAB): 1810 nM; IC50 ([2]; Table S2, 4-MU alpha glucoside substrate, listed as 276, read-out: IC50 on rhGAA): 72 nM; GAA FP% (residual FP-signal) ([3]; listed as 276): 0.6%
11 | OC[C@@H]1[C@@H](O)[C@H](O)[C@@H](O)CN1CCCCCOCc1ccc(-c2ccccc2)c(C(F)(F)F)c1 [#ID 120] | 720 | 16 | 2.4 | 
12 | OC[C@@H]1[C@@H](O)[C@H](O)[C@@H](O)CN1CCCCCOCC1CCCCC1 [#ID 127] | 1840 | 290 | 9.3 | 
13 | CCCCCCN1C[C@H](O)[C@@H](O)[C@H](O)[C@H]1CO [#ID 293] |  |  |  | IC50 ([1]; Table S2, 4-MU alpha glucoside substrate, listed as 293, read-out: IC50 on GANAB): 14000 nM; IC50 ([2]; Table S2, 4-MU alpha glucoside substrate, listed as 293, read-out: IC50 on rhGAA): 1300 nM; GAA FP% (residual FP-signal) ([3]; listed as 293): 17%
14 | CCCCCCCCCOCCCCCN1C[C@H](O)[C@@H](O)[C@H](O)[C@H]1CO [#ID 27] | 2800 | 280 | 8.4 | 
15 | OC[C@@H]1[C@@H](O)[C@H](O)[C@@H](O)CN1CCCCCOCc1ccccc1-c1ccccc1 [#ID 339] | 620 | 100 | 0.9 | 
16 | OC[C@@H]1[C@@H](O)[C@H](O)[C@@H](O)CN1CCCCCOCc1ccc(-c2ccccc2)cc1 [Compound 6] | 8300 | 1200 |  | IC50 ([1]; 4MU-α-glucoside substrate, pH 7.0, mean ± SD, 3 technical replicates, read-out: IC50 GANAB): 8290 ± 170 nM; IC50 ([2]; 4MU-α-glucoside substrate, pH 4.0, mean ± SD, 3 technical replicates, read-out: IC50 GAA): 1180 ± 310 nM; GAA FP% (residual FP-signal) ([3]; listed as 62): 3.8%
17 | OC[C@@H]1[C@@H](O)[C@H](O)[C@@H](O)CN1CCCCCOCc1ccc(-c2cccnc2)cc1 [#ID 318] | 1700 | 85 | 0.6 | 
18 | OC[C@@H]1[C@@H](O)[C@H](O)[C@@H](O)CN1CCCCCOCC(COCCCCCN1C[C@H](O)[C@@H](O)[C@H](O)[C@H]1CO)C12CC3CC(CC(C3)C1)C2 [#ID 197] | 1300 | 220 | 0.4 | 
19 | OC[C@@H]1[C@@H](O)[C@H](O)[C@@H](O)CN1CCCCCOCc1ccc(-c2cc(C(F)(F)F)cc(C(F)(F)F)c2)cc1 [#ID 308] | 14000 | 2400 | 1.5 | 
20 | CCCCOCCCCCN1C[C@H](O)[C@@H](O)[C@H](O)[C@H]1CO [#ID 283] |  |  |  | IC50 ([1]; Table S2, 4-MU alpha glucoside substrate, listed as 283, read-out: IC50 on GANAB): 4900 nM; IC50 ([2]; Table S2, 4-MU alpha glucoside substrate, listed as 283, read-out: IC50 on rhGAA): 720 nM; GAA FP% (residual FP-signal) ([3]; listed as 283): 4.4%
21 | OC[C@@H]1[C@@H](O)[C@H](O)[C@@H](O)CN1CCCCCCOCC12CC3CC(CC(C3)C1)C2 [#ID 141] | 580 | 290 | 1.8 | 
22 | COc1ccc(-c2ccc(COCCCCCN3C[C@H](O)[C@@H](O)[C@H](O)[C@H]3CO)cc2)cc1 [#ID 305] | 380 | 20 | 0.3 | 
23 | CC(C)(C)COCCCCCN1C[C@H](O)[C@@H](O)[C@H](O)[C@@H]1CO [#ID 26] | 29000 | 640 | 23 | 
24 | OC[C@@H]1[C@@H](O)[C@H](O)[C@@H](O)CN1CCCCCOCc1ccc(-c2ccc(Br)cc2)cc1 [#ID 348] | 610 | 23 | 3.1 | 

More lines, main results first:

Row | IC50 [1, 4] [nM] | IC50 [2, 5] [nM] | GAA FP% (residual FP-signal) [3] [%] | Compound | other results
25 | 850 | 250 | 7.7 | OC[C@@H]1[C@@H](O)[C@H](O)[C@@H](O)CN1CCCCCOCc1ccc2ccccc2c1 [#ID 58] | 
26 | 1300 | 130 | 0.8 | COc1ccccc1-c1ccc(COCCCCCN2C[C@H](O)[C@@H](O)[C@H](O)[C@H]2CO)cc1 [#ID 332] | 
27 | 420 | 37 | 0.1 | N#Cc1ccc(-c2ccc(COCCCCCN3C[C@H](O)[C@@H](O)[C@H](O)[C@H]3CO)cc2)cc1 [#ID 309] | 
28 | 1600 | 37 | 3.6 | OC[C@@H]1[C@@H](O)[C@H](O)[C@@H](O)CN1CCCCCOCc1ccc(-c2ccccc2)c(F)c1 [#ID 37] | 
29 | 6000 | 170 | 6.5 | CC(C)CCCC(C)C1CCC2C3CC=C4CC(OCCCCCN5CC(O)C(O)C(O)C5CO)CCC4(C)C3CCC12C (centres unmarked) [#ID 22] | 
30 | 1300 | 280 | 5.6 | OC[C@@H]1[C@@H](O)[C@H](O)[C@@H](O)CN1CCCCCOCC12CC3CC(C1)CC(COCCCCCN1C[C@H](O)[C@@H](O)[C@H](O)[C@H]1CO)(C3)C2 [#ID 99] | 
31 | 520 | 54 | 1.8 | OC[C@@H]1[C@@H](O)[C@H](O)[C@@H](O)CN1CCCCCOCc1cccc(-c2ccccc2)c1 [#ID 341] | 
32 | 9900 | 600 | 19 | CC(C)=CCOCCCCCN1C[C@H](O)[C@@H](O)[C@H](O)[C@H]1CO [#ID 100] | 
